Data as given in BigSolDB 2.1.

C[C@H]1[C@H](C)CC[C@]2(C(=O)O)CC[C@]3(C)C(=CC[C@@H]4[C@@]5(C)CC[C@H](O)C(C)(C)[C@@H]5CC[C@]43C)[C@H]12
solubility (mole fraction)
Conditions	293.6 K	300.1 K	305.2 K	310 K	320.1 K	323.2 K	329.7 K
in ethanol	0.000514	0.000766	0.000735	0.000761	0.00105	0.00105	0.00116
in ethyl acetate	0.000777	0.000771	0.00101	0.00113	0.00155	0.00162	0.00186
in isopropanol	0.00144	0.00181	0.00197	0.00213	0.00273	0.00275	0.00295
in methanol	0.000723	0.000851	0.000931	0.00102	0.00133	0.00132	0.00146
